Experimental data reported in patent US10441663B2, “Methods for treating cancer” (Bicycle Therapeutics Limited, priority 2016, dated 2019).
*1 amine or outer side, *2 acyl side, *3 side chain or, on linkers, in order; H or OH if unused. Where a SMILES comes first, the peptide text is derived from it. Bridges are numbered along the chain shown (N, C = ends). [ ]: non-standard residue; d: D form. The star is where a group is joined. X1 = COc1cc2cc(c1Cl)N(C)C(=O)C[C@H](OC(=O)[C@H](C)N(C)C(=O)CCSSC(C)CCC(=O)*)[C@]1(C)O[C@H]1[C@H](C)[C@@H]1C[C@@](O)(NC(=O)O1)[C@H](OC)/C=C/C=C(\C)C2; 1Nal = N[C@@H](Cc1cccc2ccccc12)C(=O)O; TBMB = c1c(C[*:1])cc(C[*:3])cc1C[*:2]; Tle = CC(C)(C)[C@H](N)C(=O)O; βAla = NCCC(=O)O; Sar = CNCC(=O)O

Test system: 3LL syngeneic model
Test: In vivo efficacy of BT1718 alone or in combination with Anti-PD-1 antibody in 3LL syngeneic model (Example 10)
Design: species or system Mus Musculus
Experimental: The objective of the research was to evaluate the in vivo anti-tumor efficacy of BT1718 alone or in combination with Anti-PD-1 antibody in the treatment of the subcutaneous 3LL syngeneic model in C57BL/6 mice.
The 3LL tumor cells were maintained in vitro as a monolayer culture in medium supplemented with 10% heat inactivated fetal bovine serum at 37° C. in an atmosphere of 5% CO2 in air. The tumor cells were routinely subcultured twice weekly by trypsin-EDTA treatment. The cells growing in an exponential growth phase will be harvested and counted for tumor inoculation.
Each mouse was inoculated subcutaneously at the right flank with 3LL tumor cells (1×106) in 0.1 ml of PBS for tumor development. The animals were randomized and treatment was started when the average tumor volume reaches approximately 105 mm^3 for the efficacy study. The test article administration and the animal numbers in each group were shown in the experimental design table (Table 52).
All the procedures related to animal handling, care and the treatment in the study were performed according to the guidelines of the Association for Assessment and Accreditation of Laboratory Animal Care (AAALAC). At the time of routine monitoring, the animals were daily checked for any effects of tumor growth and treatments on normal behavior such as mobility, food and water consumption (by looking only), body weight gain/loss (body weights were measured every day), eye/hair matting and any other abnormal effect as stated in the protocol. Death and observed clinical signs were recorded on the basis of the numbers of animals within each subset.
The major endpoint was to see if the tumor growth could be delayed or mice could be cured. Tumor size was measured three times weekly in two dimensions using a caliper, and the volume was expressed in mm^3 using the formula: V=0.5 a×b2 where a and b are the long and short diameters of the tumor, respectively. The tumor size was then used for calculations of T/C value. The T/C value (in percent) is an indication of antitumor effectiveness; T and C are the mean volumes of the treated and control groups, respectively, on a given day.
TGI was calculated for each group using the formula: TGI (%)=[1−(Ti−T0)/(Vi−V0)]×100; Ti is the average tumor volume of a treatment group on a given day, T0 is the average tumor volume of the treatment group on the day of treatment start, Vi is the average tumor volume of the vehicle control group on the same day with Ti, and V0 is the average tumor volume of the vehicle group on the day of treatment start.
Summary statistics, including mean and the standard error of the mean (SEM), are provided for the tumor volume of each group at each time point.
Statistical analysis of difference in tumor volume among the groups was conducted on the data obtained at the best therapeutic time point after the final dose.
A one-way ANOVA was performed to compare tumor volume among groups, and when a significant F-statistics (a ratio of treatment variance to the error variance) was obtained, comparisons between groups were carried out with Games-Howell test. All data were analyzed using Prism. P<0.05 was considered to be statistically significant.

[1] = Vehicle, ip, biw + BT1718, 3 mpk, iv, biw, day 14
[2] = Vehicle, ip, biw + BT1718, 10 mpk, iv, biw, day 14

Compound: COc1cc2cc(c1Cl)N(C)C(=O)C[C@H](OC(=O)[C@H](C)N(C)C(=O)CCSSC(C)CCC(=O)NCCC(=O)N(C)CC(=O)N(C)CC(=O)N(C)CC(=O)N(C)CC(=O)N(C)CC(=O)N(C)CC(=O)N(C)CC(=O)N(C)CC(=O)N(C)CC(=O)N(C)CC(=O)N[C@@H](C)C(=O)N[C@H]1CSCc3cc4cc(c3)CSC[C@H](NC(=O)[C@@H](C)NC(=O)[C@H](Cc3cccc5ccccc35)NC(=O)[C@H](CCC(=O)O)NC(=O)[C@H](CC(N)=O)NC(=O)[C@@H](C)NC1=O)C(=O)N[C@@H](CCC(=O)O)C(=O)N[C@@H](CC(=O)O)C(=O)N[C@@H](Cc1ccccc1)C(=O)N[C@@H](Cc1ccc(O)cc1)C(=O)N[C@@H](CC(=O)O)C(=O)N[C@@H](C(C)(C)C)C(=O)N[C@H](C(N)=O)CSC4)[C@]1(C)O[C@H]1[C@H](C)[C@@H]1C[C@@](O)(NC(=O)O1)[C@H](OC)/C=C/C=C(\C)C2 (stereo partly drawn) [BT1718] ({X1-βAla}-[Sar][Sar][Sar][Sar][Sar][Sar][Sar][Sar][Sar][Sar]AC[dA]NE[1Nal][dA]CEDFYD[Tle]C-NH2; linker 12-18-25 via TBMB (inferred))
- TGI (BT1718 3 mg/kg, day 14): 72.9%
- Tumor Volume (BT1718 3 mg/kg, day 14): 612 mm^3
- TGI (BT1718 10 mg/kg, day 14): 98.1%
- Tumor Volume (BT1718 10 mg/kg, day 14): 132 mm^3
- tumor volume trace over time (Vehicle, ip, biw + BT1718, 3 mpk, iv, biw, day 0): 96 ± 7 mm^3
- tumor volume trace over time (Vehicle, ip, biw + BT1718, 3 mpk, iv, biw, day 3): 167 ± 29 mm^3
- tumor volume trace over time (Vehicle, ip, biw + BT1718, 3 mpk, iv, biw, day 7): 320 ± 71 mm^3
- tumor volume trace over time (Vehicle, ip, biw + BT1718, 3 mpk, iv, biw, day 10): 396 ± 79 mm^3
- T/C [1]: 30.6%
- TGI [1]: 72.9%
- tumor volume trace over time [1]: 612 ± 133 mm^3
- Tumor Volume (Vehicle, ip, biw + BT1718, 3 mpk, iv, biw, day 14, Mean ± SEM): 612 ± 133 mm^3
- tumor volume trace over time (Vehicle, ip, biw + BT1718, 3 mpk, iv, biw, day 17): 968 ± 211 mm^3
- tumor volume trace over time (Vehicle, ip, biw + BT1718, 3 mpk, iv, biw, day 21): 1177 ± 196 mm^3
- tumor volume trace over time (Vehicle, ip, biw + BT1718, 10 mpk, iv, biw, day 0): 96 ± 6 mm^3
- tumor volume trace over time (Vehicle, ip, biw + BT1718, 10 mpk, iv, biw, day 3): 134 ± 17 mm^3
- tumor volume trace over time (Vehicle, ip, biw + BT1718, 10 mpk, iv, biw, day 7): 141 ± 18 mm^3
- tumor volume trace over time (Vehicle, ip, biw + BT1718, 10 mpk, iv, biw, day 10): 128 ± 16 mm^3
- T/C [2]: 6.6%
- TGI [2]: 98.1%
- tumor volume trace over time [2]: 132 ± 26 mm^3
- Tumor Volume (Vehicle, ip, biw + BT1718, 10 mpk, iv, biw, day 14, Mean ± SEM): 132 ± 26 mm^3
- tumor volume trace over time (Vehicle, ip, biw + BT1718, 10 mpk, iv, biw, day 17): 129 ± 33 mm^3
- tumor volume trace over time (Vehicle, ip, biw + BT1718, 10 mpk, iv, biw, day 21): 104 ± 41 mm^3
